pIC50: −log10 of the molar value. Where only a bound is given, the exact number is not on record here.

In the assay the target is T1, angiotensin II type 1 receptor (Oryctolagus cuniculus, UniProt P34976).
T1 construct: By using a specimen of isolated rabbit blood vessels; from tissue; host or cells: rabbit thoracic aorta ring (New Zealand White, male)
T1 sequence (P34976 1-359): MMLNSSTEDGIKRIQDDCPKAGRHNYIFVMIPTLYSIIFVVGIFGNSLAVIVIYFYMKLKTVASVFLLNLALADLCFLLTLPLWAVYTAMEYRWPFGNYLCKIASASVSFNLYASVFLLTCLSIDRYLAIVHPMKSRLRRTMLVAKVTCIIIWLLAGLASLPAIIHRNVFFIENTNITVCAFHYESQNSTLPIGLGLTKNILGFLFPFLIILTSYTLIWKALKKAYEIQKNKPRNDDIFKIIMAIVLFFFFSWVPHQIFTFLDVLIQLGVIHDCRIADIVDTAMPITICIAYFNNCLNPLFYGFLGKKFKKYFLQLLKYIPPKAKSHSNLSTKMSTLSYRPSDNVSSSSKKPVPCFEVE
Description: Angiotensin II antagonistic activity in isolated rabbit blood vessels. Conditions: angiotensin II (10 nM)-induced contraction of rabbit thoracic aorta ring. As for the experimental part: By using a specimen of isolated rabbit blood vessels, antagonistic activity of the compounds of the invention against angiotensin II type 1 receptor was estimated from a dose-response curve of angiotensin II-induced blood vessel contraction.
During the measurement, the inside temperature of the magnus bath was maintained at 37° C. and the bath was continuously ventilated with a sufficient amount of mixed gas (95% O2 and 5% CO2). The angiotensin II-induced contraction was converted into a relative value (%) that is based on the angiotensin II (10 nM)-induced contraction in the absence of the compounds of each example. From the concentration-response curve obtained therefrom, 50% inhibition concentration (IC50 value) was calculated by using SAS Preclinical Package Ver5.0 (trade name, manufactured by SAS institute Japan Co., Tokyo, Japan), which is a statistical analysis program.
The compound `CCCCc1nc(C)n(-c2nnc(C)c(C)n2)c(=O)c1Cc1ccc(-c2ccccc2-c2nnn[nH]2)cc1` [Example 61, 5-{[2′-(1H-tetrazol-5-yl)biphenyl-4-yl]methyl}-6-butyl-3-(5,6-dimethyl-1,2,4-triazin-3-yl)-2-methylpyrimidin-4 (3H)-one] had a pIC50 of 7.60.
On to `CCCCc1nc(C)n(-c2ncc(OC(C(N)=O)c3ccccc3)cn2)c(=O)c1Cc1ccc(-c2ccccc2-c2nnn[nH]2)cc1` (stereo not shown) [Example 44, 2-{2-{5-{[2′-(1H-tetrazol-5-yl)biphenyl-4-yl]methyl}-4-butyl-2-methyl-6-oxopyrimidin-1(6H)-yl}pyrimidin-5-yloxy}-2-phenylacetamide], for which the pIC50 is 6.02.
With `CCCCc1nc(C)n(-c2nc(Cl)cc(Cl)n2)c(=O)c1Cc1ccc(-c2ccccc2-c2nnn[nH]2)cc1` [Example 30, 5-{[2′-(1H-tetrazol-5-yl)biphenyl-4-yl]methyl}-6-butyl-3-(4,6-dichloropyrimidin-2-yl)-2-methylpyrimidin-4 (3H)-one] the figure was 7.70.
In turn, `CCCCc1nc(C)n(-c2ncc(OCC(=O)NCC)cn2)c(=O)c1Cc1ccc(-c2ccccc2-c2nnn[nH]2)cc1` [Example 40, 2-{2-{5-{[2′-(1H-tetrazol-5-yl)biphenyl-4-yl]methyl}-4-butyl-2-methyl-6-oxopyrimidin-1(6H)-yl}pyrimidin-5-yloxy}-N-ethylacetamide] had a pIC50 of 8.23.
Regarding `CCCCc1nc(C)n(-c2ncc(OCCCO)cn2)c(=O)c1Cc1ccc(-c2ccccc2-c2nnn[nH]2)cc1` [Example 25, 5-{[2′-(1H-tetrazol-5-yl)biphenyl-4-yl]methyl}-6-butyl-3-[5-(3-hydroxypropoxy)pyrimidin-2-yl]-2-methylpyrimidin-4 (3H)-one], the pIC50 was 7.62.
The same measure for `CCCCc1nc(C)n(-c2ncc(O)cn2)c(=O)c1Cc1ccc(-c2ccccc2-c2nnn[nH]2)cc1` [Example 20, 5-{[2′-(1H-tetrazol-5-yl)biphenyl-4-yl]methyl}-6-butyl-3-(5-hydroxypyrimidin-2-yl)-2-methylpyrimidin-4 (3H)-one]: 8.20.
With `CCCCc1nc(C)n(-c2ncc(OCc3nc(-c4ccco4)oc3C)cn2)c(=O)c1Cc1ccc(-c2ccccc2-c2nnn[nH]2)cc1` [Example 33, 5-{[2′-(1H-tetrazol-5-yl)biphenyl-4-yl]methyl}-6-butyl-3-{5-{[2-(furan-2-yl)-5-methyloxazol-4-yl]methoxy}pyrimidin-2-yl}-2-methylpyrimidin-4 (3H)-one] the figure was 6.02; with `CCCCc1nc(C)n(-c2ncc(OCCCCC(=O)NCC)cn2)c(=O)c1Cc1ccc(-c2ccccc2-c2nnn[nH]2)cc1` [Example 54, 5-{2-{5-{[2′-(1H-tetrazol-5-yl)biphenyl-4-yl]methyl}-4-butyl-2-methyl-6-oxopyrimidin-1(6H)-yl}pyrimidin-5-yloxy}-N-ethylpentanamide], 7.60; with `CCCCc1nc(C)n(-c2cccc(C(F)(F)F)n2)c(=O)c1Cc1ccc(-c2ccccc2-c2nnn[nH]2)cc1` [Example 12, 5-{[2′-(1H-tetrazol-5-yl)biphenyl-4-yl]methyl}-6-butyl-2-methyl-3-[6-(trifluoromethyl)pyridin-2-yl]pyrimidin-4(3H)-one], 6.64.
The same measure for `CCCCc1nc(C)n(-c2ncc(OCCc3nc(-c4ccccc4)oc3C)cn2)c(=O)c1Cc1ccc(-c2ccccc2-c2nnn[nH]2)cc1` [Example 35, 5-{[2′-(1H-tetrazol-5-yl)biphenyl-4-yl]methyl}-6-butyl-2-methyl-3-{5-[2-(5-methyl-2-phenyloxazol-4-yl)ethoxy]pyrimidin-2-yl}pyrimidin-4 (3H)-one]: 6.46; for `CCCCc1nc(C)n(-c2ncc(OCCCNC(C)=O)cn2)c(=O)c1Cc1ccc(-c2ccccc2-c2nnn[nH]2)cc1` [Example 56, N-{3-{2-{5-{[2′-(1H-tetrazol-5-yl)biphenyl-4-yl]methyl}-4-butyl-2-methyl-6-oxopyrimidin-1 (6H)-yl}pyrimidin-5-yloxy}propyl}acetamide]: 8.62; for `CCCCc1nc(C)n(-c2ncc(OCCCC(=O)OCC)cn2)c(=O)c1Cc1ccc(-c2ccccc2-c2nnn[nH]2)cc1` [Example 45, ethyl 4-{2-{5-{[2′-(1H-tetrazol-5-yl)biphenyl-4-yl]methyl}-4-butyl-2-methyl-6-oxopyrimidin-1(6H)-yl}pyrimidin-5-yloxy}butanoate]: 6.62.
With `CCCCc1nc(C)n(-c2ncc(OCCS(C)(=O)=O)cn2)c(=O)c1Cc1ccc(-c2ccccc2-c2nnn[nH]2)cc1` [Example 27, 5-{[2′-(1H-tetrazol-5-yl)biphenyl-4-yl]methyl}-6-butyl-2-methyl-3-{5-[2-(methylsulfonyl)ethoxy]pyrimidin-2-yl}pyrimidin-4 (3H)-one], the pIC50 was 8.30.
With `CCCCc1nc(C)n(-c2ncc(OCc3nc(-c4ccc(Br)o4)oc3C)cn2)c(=O)c1Cc1ccc(-c2ccccc2-c2nnn[nH]2)cc1` [Example 32, 5-{[2′-(1H-tetrazol-5-yl)biphenyl-4-yl]methyl}-3-{5-{[2-(5-bromofuran-2-yl)-5-methyloxazol-4-yl]methoxy}pyrimidin-2-yl}-6-butyl-2-methylpyrimidin-4 (3H)-one] the figure was 6.37; with `CCCCc1nc(C)n(-c2ncc(OCC(N)=O)cn2)c(=O)c1Cc1ccc(-c2ccccc2-c2nnn[nH]2)cc1` [Example 39, 2-{2-{5-{[2′-(1H-tetrazol-5-yl)biphenyl-4-yl]methyl}-4-butyl-2-methyl-6-oxopyrimidin-1(6H)-yl}pyrimidin-5-yloxy}acetamide], 9.00.
The same measure for `CCCCc1nc(C)n(-c2ccccn2)c(=O)c1Cc1ccc(-c2ccccc2-c2nnn[nH]2)cc1` [Example 1, 5-{[2′-(1H-tetrazol-5-yl)biphenyl-4-yl]methyl}-6-butyl-2-methyl-3-(pyridin-2-yl)pyrimidin-4(3H)-one]: 8.68; for `CCCCc1nc(C)n(-c2ncc(OCCCCC(=O)N(CC)CC)cn2)c(=O)c1Cc1ccc(-c2ccccc2-c2nnn[nH]2)cc1` [Example 55, 5-{2-{5-{[2′-(1H-tetrazol-5-yl)biphenyl-4-yl]methyl}-4-butyl-2-methyl-6-oxopyrimidin-1(6H)-yl}pyrimidin-5-yloxy}-N,N-diethylpentanamide]: over 7.00; for `CCCCc1nc(C)n(-c2ncc(OCC(=O)O)cn2)c(=O)c1Cc1ccc(-c2ccccc2-c2nnn[nH]2)cc1` [Example 38, 2-{2-{5-{[2′-(1H-tetrazol-5-yl)biphenyl-4-yl]methyl}-4-butyl-2-methyl-6-oxopyrimidin-1(6H)-yl}pyrimidin-5-yloxy}acetic acid]: 8.19.
With `CCCCc1nc(C)n(-c2ncn(C)n2)c(=O)c1Cc1ccc(-c2ccccc2-c2nnn[nH]2)cc1` [Example 65, 5-{[2′-(1H-tetrazol-5-yl)biphenyl-4-yl]methyl}-6-butyl-2-methyl-3-(1-methyl-1H-1,2,4-triazol-3-yl)pyrimidin-4 (3H)-one] the figure was 7.64; with `CCCCc1nc(C)n(-c2ncc(OC)cn2)c(=O)c1Cc1ccc(-c2ccccc2-c2nnn[nH]2)cc1` [Example 18, 5-{[2′-(1H-tetrazol-5-yl)biphenyl-4-yl]methyl}-6-butyl-3-(5-methoxypyrimidin-2-yl)-2-methylpyrimidin-4 (3H)-one], 8.57.
With `CCCCc1nc(C)n(-c2ncc(OCCCNS(C)(=O)=O)cn2)c(=O)c1Cc1ccc(-c2ccccc2-c2nnn[nH]2)cc1` [Example 57, N-{3-{2-{5-{[2′-(1H-tetrazol-5-yl)biphenyl-4-yl]methyl}-4-butyl-2-methyl-6-oxopyrimidin-1(6H)-yl}pyrimidin-5-yloxy}propyl}methane sulfonamide], the pIC50 was 8.44.
With `CCCCc1nc(C)n(-c2ncc(OCCCC(=O)O)cn2)c(=O)c1Cc1ccc(-c2ccccc2-c2nnn[nH]2)cc1` [Example 46, 4-{2-{5-{[2′-(1H-tetrazol-5-yl)biphenyl-4-yl]methyl}-4-butyl-2-methyl-6-oxopyrimidin-1(6H)-yl}pyrimidin-5-yloxy}butanoic acid] the figure was 8.37; with `CCCCc1nc(C)n(-c2ccc([N+](=O)[O-])cn2)c(=O)c1Cc1ccc(-c2ccccc2-c2nnn[nH]2)cc1` [Example 14, 5-{[2′-(1H-tetrazol-5-yl)biphenyl-4-yl]methyl}-6-butyl-2-methyl-3-(5-nitropyridin-2-yl)pyrimidin-4 (3H)-one], 6.26; with `CCCCc1nc(C)n(-c2ncc(OCCCC(=O)NC(C)C)cn2)c(=O)c1Cc1ccc(-c2ccccc2-c2nnn[nH]2)cc1` [Example 51, 4-{2-{5-{[2′-(1H-tetrazol-5-yl)biphenyl-4-yl]methyl}-4-butyl-2-methyl-6-oxopyrimidin-1(6H)-yl}pyrimidin-5-yloxy}-N-isopropylbutanamide], 8.24.
The same measure for `CCCCc1nc(C)n(-c2ncc(OCC(=O)N(CC)CC)cn2)c(=O)c1Cc1ccc(-c2ccccc2-c2nnn[nH]2)cc1` [Example 41, 2-{2-{5-{[2′-(1H-tetrazol-5-yl)biphenyl-4-yl]methyl}-4-butyl-2-methyl-6-oxopyrimidin-1(6H)-yl}pyrimidin-5-yloxy}-N,N-diethylacetamide]: 8.06.

By pIC50 is commonly meant −log10 of the IC50, conventionally taken in molar units. A higher pIC50 goes with a low IC50.

The record behind these values is patent US8664226B2, “Compound having 3-heteroarylpyrimidin-4-(3H)-one structure and pharmaceutical preparation containing same” (Kowa Company, Ltd., priority 2009, dated 2014).
